Assay results reported in patent US20230000996A1, “RAPAFUCIN DERIVATIVE COMPOUNDS AND METHODS OF USE THEREOF” (The Johns Hopkins University, priority 2019, published 2023).

Assay: Nucleoside uptake, single concentration assay (Rel.Uptake); cell line indicated in each table
Assay type: cell-based
Conditions: 293T cells; single concentration; response relative to DMSO
Experimental: Nucleoside Uptake Assay (uptake). Nuceloside uptake assays were performed with using 3H-Thymidine as described in Guo et al. (2018) Nat. Chem. 11:254-63. Specific cell lines are indicated in each assay and cultured in complete growth media. Activity is scored according to the IC50 values relative to DMSO control. “Low” indicates an IC50 greater than 600 nM, “Medium” indicates an IC50 between 300 nM and 600 nM “High” indicates an IC50 less than 300 nM. “Rel.Uptake” refers to uptake activity characterization relative to a single concentration assay. “Low” indicates a response greater than 0.6 times the activity relative to DMSO, “Medium” indicates a response between 0.6 and 0.3 times the activity relative to DMSO, “High” indicates a response less than 0.3 times the activity relative to DMSO.
In the case of COc1ccc(CC[C@H]2OC(=O)[C@@H]3CCCCN3C(=O)C(=O)C(C)(C)COC(=O)C=CCCN(C)C(=O)[C@H](CC(C)C)N(C)C(=O)[C@H]3CCCN3C(=O)[C@H](CC(=O)OC(C)(C)C)N(C)C(=O)C(c3ccccc3)NC(=O)CCC(=O)Nc3cccc2c3)cc1OC (stereo partly shown) [Compound 1066], the “Rel. Uptake, 293T” value is reported as “high”. In the case of COc1ccc(CC[C@H]2OC(=O)[C@@H]3CCCCN3C(=O)C(=O)C(C)(C)COC(=O)C=CCCN(C)C(=O)[C@H](CC(C)C)N(C)C(=O)[C@H]3CCCN3C(=O)[C@H](Cc3ccc(CC(=O)OC(C)(C)C)cc3)NC(=O)C(c3ccccc3)NC(=O)CCC(=O)Nc3cccc2c3)cc1OC (stereo partly shown) [Compound 1081], the “Rel. Uptake, 293T” value is reported as “medium”. With COc1ccc(CC[C@H]2OC(=O)[C@@H]3CCCCN3C(=O)C(=O)C(C)(C)COC(=O)C=CCCN(C)C(=O)[C@H](CC(C)C)N(C)C(=O)[C@H]3CCCN3C(=O)[C@H](Cc3ccc(OCc4ccccc4)cc3)NC(=O)C(c3ccccc3)NC(=O)CCC(=O)Nc3cccc2c3)cc1OC (stereo partly shown) [Compound 1082] the “Rel. Uptake, 293T” value was “low”.

Same assay, conditions: nucleoside uptake, single concentration assay, 293T cells, response relative to DMSO
With COc1ccc(CC[C@H]2OC(=O)[C@@H]3CCCCN3C(=O)C(=O)C(C)(C)COC(=O)C=CCCN(C)C(=O)[C@@H](c3ccccc3)NC(=O)[C@H](Cc3ccc(OP(C)(C)=O)cc3)NC(=O)[C@H]3CCCN3C(=O)[C@H](CC(C)C)N(C)C(=O)COc3cccc2c3)cc1OC [Compound 1520] the “Rel. Uptake, 293T” value was “low”. For COc1ccc(CC[C@H]2OC(=O)[C@@H]3CCCCN3C(=O)C(=O)C(C)(C)COC(=O)C=CCCN(C)C(=O)[C@H](CC(C)C)N(C)C(=O)[C@H]3CCCN3C(=O)[C@H](Cc3ccc(O)cc3)NC(=O)C(c3ccccc3)NC(=O)CCC(=O)Nc3cccc2c3)cc1OC (stereo partly shown) [Compound 1522], the “Rel. Uptake, 293T” value was “high”. With COc1ccc(CC[C@H]2OC(=O)[C@@H]3CCCCN3C(=O)C(=O)C(C)(C)CNC(=O)C=CCCN(C)C(=O)[C@H](CC(C)C)N(C)C(=O)[C@H]3CCCN3C(=O)[C@H](Cc3ccccc3)N(C)C(=O)C(c3ccccc3)NC(=O)CCC(=O)Nc3cccc2c3)cc1OC (stereo partly shown) [Compound 1555] the “Rel. Uptake, 293T” value was “high”. For COc1ccc(CC[C@H]2OC(=O)[C@@H]3CCCCN3C(=O)C(=O)C(C)(C)COC(=O)C=CCCN(C)NC(c3ccccc3)C(=O)N(C)[C@@H](Cc3ccccc3)C(=O)N3CCC[C@@H]3C(=O)N(C)[C@@H](CC(C)C)C(=O)C(=O)CCOc3cccc2c3)cc1OC (stereo partly shown) [Compound 1556], the “Rel. Uptake, 293T” value was “low”. In the case of COc1ccc(CC[C@H]2OC(=O)[C@@H]3CCCCN3C(=O)C(=O)C(C)(C)COC(=O)C=CCCN(C)C(=O)[C@H](CC(C)C)N(C)C(=O)[C@H]3CCCN3C(=O)[C@H](Cc3ccc(C(=O)NCCO)cc3)NC(=O)[C@H](c3ccccc3)NC(=O)CCC(=O)Nc3cccc2c3)cc1OC [Compound 1558], the “Rel. Uptake, 293T” value is reported as “high”. For COc1ccc(CC[C@H]2OC(=O)[C@@H]3CCCCN3C(=O)C(=O)C(C)(C)COC(=O)C=CCCN(C)C(=O)[C@H](CC(C)C)N(C)C(=O)[C@H]3CCCN3C(=O)[C@H](Cc3ccc(C(=O)Nc4cccnc4)cc3)NC(=O)[C@H](c3ccccc3)NC(=O)CCC(=O)Nc3cccc2c3)cc1OC [Compound 1562], the “Rel. Uptake, 293T” value was “low”. In the case of CCCC[C@H]1C(=O)N[C@@H](Cc2ccc3ccccc3c2)C(=O)N(C)[C@@H](COC(C)(C)C)C(=O)NCC(=O)N(C)CCC=CC(=O)OCC(C)(C)C(=O)C(=O)N2CCCC[C@H]2C(=O)O[C@H](CCc2ccc(OC)c(OC)c2)c2cccc(c2F)OCC(=O)N1C [Compound 1563], the “Rel. Uptake, 293T” value is reported as “high”. In the case of CCCC[C@H]1C(=O)N[C@@H](Cc2ccc3ccccc3c2)C(=O)N(C)[C@@H](COC(C)(C)C)C(=O)NCC(=O)N(C)CCC=CC(=O)OCC(C)(C)C(=O)C(=O)N2CCCC[C@H]2C(=O)O[C@H](CCc2ccc(OC)c(O)c2)c2cccc(c2)OCC(=O)N1C [Compound 1564], the “Rel. Uptake, 293T” value is reported as “high”. In the case of CCCC[C@H]1C(=O)N[C@@H](Cc2ccc3ccccc3c2)C(=O)N(C)[C@@H](COC(C)(C)C)C(=O)NCC(=O)N(C)CCC=CC(=O)OCC(C)(C)C(=O)C(=O)N2CCCC[C@H]2C(=O)O[C@H](CCc2ccc(OC)c(OC)c2)c2cncc(c2)OCC(=O)N1C [Compound 1565], the “Rel. Uptake, 293T” value is reported as “low”. For COc1cc(CC[C@H]2OC(=O)[C@@H]3CCCCN3C(=O)C(=O)C(C)(C)COC(=O)C=CCCN(C)C(=O)[C@@H](Cc3ccccc3)NC(=O)CN(C)C(=O)[C@@H](Cc3ccccc3)NC(=O)[C@H](Cc3ccc(O)cc3)N(C)C(=O)COc3cccc2c3)cc(OC)c1OC [Compound 1566], the “Rel. Uptake, 293T” value was “medium”. With COc1cc(CC[C@H]2OC(=O)[C@@H]3CCCCN3C(=O)C(=O)C(C)(C)COC(=O)C=CCCN(C)C(=O)[C@@H](Cc3ccccc3)NC(=O)CN(C)C(=O)[C@@H](Cc3ccccc3)NC(=O)[C@H](Cc3ccc(O)cc3)N(C)C(=O)COc3cccc2c3)cc(O)c1OC [Compound 1567] the “Rel. Uptake, 293T” value was “medium”. In the case of COc1cc(O)c(CC[C@H]2OC(=O)[C@@H]3CCCCN3C(=O)C(=O)C(C)(C)COC(=O)C=CCCN(C)C(=O)[C@@H](Cc3ccccc3)NC(=O)CN(C)C(=O)[C@@H](Cc3ccccc3)NC(=O)[C@H](Cc3ccc(O)cc3)N(C)C(=O)COc3cccc2c3)cc1OC [Compound 1568], the “Rel. Uptake, 293T” value is reported as “low”. With COc1cc(CC[C@H]2OC(=O)[C@@H]3CCCCN3C(=O)C(=O)C(C)(C)COC(=O)C=CCCN(C)C(=O)[C@@H](Cc3ccccc3)NC(=O)CN(C)C(=O)[C@@H](Cc3ccccc3)NC(=O)[C@H](Cc3ccc(O)cc3)N(C)C(=O)COc3cccc2c3)cc(F)c1OC [Compound 1569] the “Rel. Uptake, 293T” value was “low”. In the case of COc1cc(F)c(CC[C@H]2OC(=O)[C@@H]3CCCCN3C(=O)C(=O)C(C)(C)COC(=O)C=CCCN(C)C(=O)[C@@H](Cc3ccccc3)NC(=O)CN(C)C(=O)[C@@H](Cc3ccccc3)NC(=O)[C@H](Cc3ccc(O)cc3)N(C)C(=O)COc3cccc2c3)cc1OC [Compound 1570], the “Rel. Uptake, 293T” value is reported as “medium”. With COc1ccc(CC[C@H]2OC(=O)[C@@H]3CCCCN3C(=O)C(=O)C(C)(C)COC(=O)C=CCCN(C)C(=O)[C@@H](Cc3ccccc3)NC(=O)CN(C)C(=O)[C@@H](Cc3ccccc3)NC(=O)[C@H](Cc3ccc(O)cc3)N(C)C(=O)COc3cccc2c3)c(F)c1OC [Compound 1571] the “Rel. Uptake, 293T” value was “low”. For COc1ccc(CC[C@H]2OC(=O)[C@@H]3CN(C(=O)OCC4c5ccccc5-c5ccccc54)CCN3C(=O)C(=O)C(C)(C)COC(=O)C=CCCN(C)C(=O)[C@@H](Cc3ccccc3)NC(=O)CN(C)C(=O)[C@@H](Cc3ccccc3)NC(=O)[C@H](Cc3ccc(O)cc3)N(C)C(=O)COc3cccc2c3)cc1OC [Compound 1572], the “Rel. Uptake, 293T” value was “low”. For COc1ccc(CC[C@H]2OC(=O)[C@@H]3CNCCN3C(=O)C(=O)C(C)(C)COC(=O)C=CCCN(C)C(=O)[C@@H](Cc3ccccc3)NC(=O)CN(C)C(=O)[C@@H](Cc3ccccc3)NC(=O)[C@H](Cc3ccc(O)cc3)N(C)C(=O)COc3cccc2c3)cc1OC [Compound 1573], the “Rel. Uptake, 293T” value was “low”. In the case of COc1ccc(CC[C@H]2OC(=O)[C@@H]3CN(C)CCN3C(=O)C(=O)C(C)(C)COC(=O)C=CCCN(C)C(=O)[C@@H](Cc3ccccc3)NC(=O)CN(C)C(=O)[C@@H](Cc3ccccc3)NC(=O)[C@H](Cc3ccc(O)cc3)N(C)C(=O)COc3cccc2c3)cc1OC [Compound 1574], the “Rel. Uptake, 293T” value is reported as “low”. In the case of COc1ccc(CC[C@H]2OC(=O)[C@@H]3CCCCN3C(=O)C(=O)C(C)(C)COC(=O)C=CCCN(C)C(=O)[C@@H](Cc3ccccc3)NC(=O)CN(C)C(=O)[C@@H](Cc3ccccc3)NC(=O)[C@H](Cc3ccc(O)cc3)N(C)C(=O)COc3ccc(F)c2c3)cc1OC [Compound 1575], the “Rel. Uptake, 293T” value is reported as “low”. With COc1ccc(CC[C@H]2OC(=O)[C@@H]3CCCCN3C(=O)C(=O)C(C)(C)COC(=O)C=CCCN(C)C(=O)[C@@H](Cc3ccccc3)NC(=O)CN(C)C(=O)[C@@H](Cc3ccccc3)NC(=O)[C@H](Cc3ccc(O)cc3)N(C)C(=O)COc3cc(F)cc2c3)cc1OC [Compound 1576] the “Rel. Uptake, 293T” value was “medium”. In the case of COc1ccc(CC[C@H]2OC(=O)[C@@H]3CCCCN3C(=O)C(=O)C(C)(C)COC(=O)C=CCCN(C)C(=O)[C@@H](Cc3ccccc3)NC(=O)CN(C)C(=O)[C@@H](Cc3ccccc3)NC(=O)[C@H](Cc3ccc(O)cc3)N(C)C(=O)COc3cccc2c3)c(OC)c1OC [Compound 1577], the “Rel. Uptake, 293T” value is reported as “medium”. In the case of COc1ccc(CC[C@H]2OC(=O)[C@@H]3CCCCN3C(=O)C(=O)C(C)(C)COC(=O)C=CCCN(C)C(=O)[C@@H](Cc3ccccc3)NC(=O)CN(C)C(=O)[C@@H](Cc3ccccc3)NC(=O)[C@H](Cc3ccc(O)cc3)N(C)C(=O)COc3cc2ccc3F)cc1OC [Compound 1578], the “Rel. Uptake, 293T” value is reported as “low”. In the case of COc1ccc(CC[C@H]2OC(=O)[C@@H]3CCCCN3C(=O)C(=O)C(C)(C)COC(=O)C=CCCN(C)C(=O)[C@@H](Cc3ccccc3)NC(=O)CN(C)C(=O)[C@@H](Cc3ccccc3)NC(=O)[C@H](Cc3ccc(O)cc3)N(C)C(=O)COc3cccc2c3F)cc1OC [Compound 1579], the “Rel. Uptake, 293T” value is reported as “medium”. For COc1ccc(CC[C@H]2OC(=O)[C@@H]3CCCCN3C(=O)C(=O)C(C)(C)COC(=O)C=CCCN(C)C(=O)[C@@H](Cc3ccccc3)NC(=O)CN(C)C(=O)[C@@H](Cc3ccccc3)NC(=O)[C@H](Cc3ccc(O)cc3)N(C)C(=O)COc3cncc2c3)cc1OC [Compound 1580], the “Rel. Uptake, 293T” value was “low”. For COc1cc(OC)c(OC)cc1CC[C@H]1OC(=O)[C@@H]2CCCCN2C(=O)C(=O)C(C)(C)COC(=O)C=CCCN(C)C(=O)[C@@H](Cc2ccccc2)NC(=O)CN(C)C(=O)[C@@H](Cc2ccccc2)NC(=O)[C@H](Cc2ccc(O)cc2)N(C)C(=O)COc2cccc1c2 [Compound 1581], the “Rel. Uptake, 293T” value was “medium”.
